What is called IC50 is the concentration needed to halve the response being measured.

Read-outs that look alike come from different tables or passages of the source.

The subject of experiment [1] is BRAF^V600E melanoma cell lines. Put plainly: Growth response to drug combinations with VEM (Bliss combination index). To be noted: A375 and Sk-Mel-28; VEM + 2nd drug. In kind it is cell-based. From the text:
(a) Summary of possible cell responses to the combination of two drugs. The heatmap on the left represents the experimental effects of combining increasing concentrations of drug A+B as changes in cancer cell growth. The middle graph is a conceptual representation of how differences in effects of drugs alone or combined can be interpreted as either synergistic, additive, or antagonistic (derived from^10). The heatmap on the right represents the calculated combination index from all experimental cell growth data points. We decided to analyze experimental profiles using the Bliss Independence model to calculate combination indices (CI) and avoid inaccuracies from dose-effect curve estimations (CI=log 2 (Eab/(Ea*Eb); synergy CI<0; additivity CI=0; antagonism CI>0) 10-12. (b) Maps of cell growth responses (left) and combination indices (right). We tested the dependency of BRAF^V600E melanoma cell lines for kinases found as differentially active by HT-KAM in patient tumors (FIG. 26a,b). We included everolimus or trametinib (bottom two rows) as experimental ‘positive’ controls and for side-by-side comparison of the effects of other kinase-targeting drugs we tested. Arrows located above and on the left of each cell growth heatmaps serve as indicators of GI50 concentrations for each drug alone.
(§1) To assess the growth/survival response of cell lines to single or combinatorial drug treatments in FIGS. 2-3 and FIGS. 20, 22, 28, 29, we used CellTiter-Glo cell viability assay (Promega; cat #G7571). Cell culture and luminescence readouts were performed in 96- and 384-well plates after 3-day treatments. Drug treatment conditions are described in the text. The effects of drug combinations on cell growth were assessed by calculating drug interaction (D.I.; two-way ANOVA using Prism or Sigma Plot software) and combination index (C.I.; following either the Loewe Additivity^6-9 or Bliss Independence models^[…]). […] We systematically tested the effects of drugs in both regular and low serum culture conditions (i.e. 5% and 0.25% FBS media). To quantitate cell death in FIG. 3 and FIGS. 28-29, FACS analysis of nuclear degradation was performed as previously described^13. Colony formation assay in FIG. 3 and FIG. 30 were performed as previously described^5.

The next experiment concerns the target LCK (Homo sapiens, UniProt P06239). To be noted: literature reports; cited from earlier work.
A further experiment deals with Sk-Mel-28. Description: 3-day CellTiter-Glo cell viability assay. In kind it is cell-based. To be noted: read-out: GI50, drug alone. The protocol:
as §1

The subject of a further experiment is A375. Put plainly: 3-day CellTiter-Glo cell viability assay. Type of experiment: cell-based. To be noted: read-out: GI50, drug alone. The protocol:
as §1
(Cellular ATP, detected with luciferase, serves as a proxy for viable cell number.)

A further experiment has as its system M032R6.X1. CL. Description: 3-week colony formation assay. In kind it is cell-based. To be noted: PDX-derived cell line with high RPS6KB1.
Description: (§2) (a-b) Phospho-RPS6KB profiles of two patient-derived xenografts (PDXs) tumor tissues (a) and related cell lines (b). PDXs were previously^4,5 established from patients refractory to BRAF^V600E-therapy. A limited number of primary cell lines were derived from these PDX's. (c) Sensitivity of primary melanoma cell lines to RPS6KB-inhibitor PF-4708671 in 3-week colony formation assays.
as §1

The test system of the next experiment is M061R.X1. CL. Description: 3-week colony formation assay. Type of experiment: cell-based. To be noted: PDX-derived cell line without high RPS6KB1.
Description: as §2, §1

The target in another experiment is T1, AKT1 (Homo sapiens, UniProt P31749).
T1 construct: purchased SignalChem A16-10G
Description: HT-KAM ATP-consumption kinase activity assay with inhibitors. In kind it is biochemical. To be noted: control assays, data not shown.

The test system of a further experiment is WiDr cells. Put plainly: 3-day cell viability assay. In kind it is cell-based. To be noted: Homo sapiens, 72 h, read-out: GI50 concentration.
Description: FIG. 20. Response of BRAF^V600E CRC cells to targeted therapy combinations. To validate the kinase activity signatures of VEM-resistant WiDr cells found by HT-KAM screen, and as a mean to assess the role of these kinases (AKT1, PDPK1, PRKCA, SGK1) as mediators of the response to VEM and their potential value as druggable vulnerabilities in our model, we used 3-day cell viability assays to monitor the response of cells to drug combinations.
as §1

The next experiment relates to A375 myrAKT1 cells. Put plainly: 3-day cell viability assay, myrAKT1-expressing cells. In kind it is cell-based. To be noted: myrAKT1-expressing vs control counterpart; p=2.77E-06.
Description: FIG. 29. A375 expressing a constitutively active AKT1 oncogenic kinase remain sensitive to RPS6KB- or PIM-targeting. We exogenously expressed myrAKT1 (i.e. a constitutively active oncogenic AKT1) in A375 cells. We then tested the sensitivity of A375 myrAKT1 cells to drug combinations.
as §1

The mark [2] stands for this setting: Homo sapiens, SK-MEL-28, 72 h, 0.25% FBS media.
Setting [3] is: Homo sapiens, SK-MEL-28, 72 h, 5% FBS media.
Where [4] appears, read: Homo sapiens, A-375, 72 h, 0.25% FBS media.
[5] abbreviates: Homo sapiens, A-375, 72 h, 5% FBS media.

Sequence of LCK (P06239 whole entry, species assumed): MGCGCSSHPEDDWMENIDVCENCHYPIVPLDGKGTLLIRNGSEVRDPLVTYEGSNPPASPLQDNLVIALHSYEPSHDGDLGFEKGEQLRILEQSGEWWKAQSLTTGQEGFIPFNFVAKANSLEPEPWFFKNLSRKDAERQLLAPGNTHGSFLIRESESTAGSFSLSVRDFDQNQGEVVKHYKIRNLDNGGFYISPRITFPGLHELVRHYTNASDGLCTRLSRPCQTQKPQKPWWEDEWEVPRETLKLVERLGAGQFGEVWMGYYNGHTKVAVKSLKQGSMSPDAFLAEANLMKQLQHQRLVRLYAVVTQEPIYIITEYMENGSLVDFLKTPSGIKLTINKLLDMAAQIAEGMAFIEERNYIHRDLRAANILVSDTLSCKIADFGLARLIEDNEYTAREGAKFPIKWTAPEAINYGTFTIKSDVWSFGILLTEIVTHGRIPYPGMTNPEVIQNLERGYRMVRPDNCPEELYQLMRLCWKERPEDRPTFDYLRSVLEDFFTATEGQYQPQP
T1 sequence (P31749 whole entry): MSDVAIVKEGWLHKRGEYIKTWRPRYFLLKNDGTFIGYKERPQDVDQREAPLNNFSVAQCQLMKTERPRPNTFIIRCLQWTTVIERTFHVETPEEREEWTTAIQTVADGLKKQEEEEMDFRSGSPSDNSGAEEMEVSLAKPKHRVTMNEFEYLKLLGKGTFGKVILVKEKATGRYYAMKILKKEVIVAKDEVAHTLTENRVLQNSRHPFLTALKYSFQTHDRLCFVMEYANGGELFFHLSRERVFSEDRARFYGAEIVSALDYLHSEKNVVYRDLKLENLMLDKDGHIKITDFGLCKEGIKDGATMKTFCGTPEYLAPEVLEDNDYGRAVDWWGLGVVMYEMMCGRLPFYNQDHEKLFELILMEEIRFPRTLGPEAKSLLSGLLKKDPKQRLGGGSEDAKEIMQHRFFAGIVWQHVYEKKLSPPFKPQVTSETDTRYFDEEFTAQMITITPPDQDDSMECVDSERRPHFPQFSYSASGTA

Take `COc1ccc2c(c1)c(C1=C(c3c[nH]c4ccccc34)C(=O)NC1=O)cn2CCCN(C)C` [Go6983]: the “effect of combination with VEM on cell growth / combination index” value (shortened to “effect … on cell growth / combination index”) in [1] is “limited additivity effects”.

Regarding `CN(C)S(=O)(=O)c1ccc2c(c1)/C(=C/c1cc3c([nH]1)CCCC3)C(=O)N2` [SU6656], the IC50 on LCK is over 5 µM.

Regarding `CC(=O)Nc1cccc(-n2c(=O)n(C3CC3)c(=O)c3c(Nc4ccc(I)cc4F)n(C)c(=O)c(C)c32)c1` [trametinib], the GI50 with Sk-Mel-28 (setting [2]) amounted to 0.01 µM; in the experiment on Sk-Mel-28 (setting [3]) it was 0.01 µM; in the experiment on A375 (setting [4]) it was 0.0025 µM; in the experiment on A375 (setting [5]), 0.005 µM.

Regarding `CO[C@H]1C[C@@H]2CC[C@@H](C)[C@@](O)(O2)C(=O)C(=O)N2CCCC[C@H]2C(=O)O[C@H]([C@H](C)C[C@@H]2CC[C@@H](OCCO)[C@H](OC)C2)CC(=O)[C@H](C)/C=C(\C)[C@@H](O)[C@@H](OC)C(=O)[C@H](C)C[C@H](C)/C=C/C=C/C=C/1C` [everolimus], the GI50 with Sk-Mel-28 (setting [2]) came to 10 µM; in the experiment with Sk-Mel-28 (setting [3]) it was 10 µM; with A375 (setting [4]), 10 µM; with A375 (setting [5]), 5 µM.

Turning to `Cn1cc(-c2ccc(F)c(C(F)(F)F)c2)nc1C1CCN(c2ncnc3[nH]ncc23)CC1` [LY2584702], the GI50 in the experiment with Sk-Mel-28 (setting [2]) was 100 µM; in the experiment on Sk-Mel-28 (setting [3]), 100 µM; in the experiment with A375 (setting [4]), over 200 µM; in the experiment with A375 (setting [5]), 50 µM. Also, the “effect … on cell growth / combination index” value in experiment [1] was “strong growth inhibitory effects”.

For `CCc1cncnc1N1CCN(Cc2nc3ccc(C(F)(F)F)cc3[nH]2)CC1` [PF-4708671], the GI50 in the experiment with Sk-Mel-28 (0.25% FBS media) turned out to be 16 µM; in the experiment on Sk-Mel-28 (5% FBS media), 32 µM; in the experiment on A375 (0.25% FBS media), 16 µM; in the experiment with A375 (5% FBS media), 32 µM. Moreover, the “sensitivity in colony formation” value in the experiment with M032R6.X1. CL is reported as “sensitive”; in the experiment on M061R.X1. CL, “not sensitive”. For the same compound, in experiment [1], the “effect … on cell growth / combination index” value is listed as “strong growth inhibitory effects”.

As to `O=C1Cc2c([nH]c3ccc(Br)cc23)-c2ncccc2N1` [1-Azakenpaullone], the GI50 in the experiment with Sk-Mel-28 (0.25% FBS media) is 10 µM; in the experiment on Sk-Mel-28 (5% FBS media) it was 20 µM; in the experiment with A375 (0.25% FBS media) it was 2.5 µM; in the experiment with A375 (5% FBS media), 20 µM. The “effect … on cell growth / combination index” value in experiment [1] was “antagonizing the effects of VEM treatment”.

Take `N[C@@H]1CCCN(c2c(/C=C3\SC(=O)NC3=O)cccc2-c2ccccc2)C1` [AZD1208]: the GI50 in the experiment with Sk-Mel-28 (0.25% FBS media) came out at 25 µM; in the experiment on Sk-Mel-28 (5% FBS media), 25 µM; in the experiment on A375 (0.25% FBS media), 12.5 µM; with A375 (5% FBS media), 12.5 µM. The “effect … on cell growth / combination index” value in experiment [1] is “strong growth inhibitory effects”.

As for `CC(C)CCN1c2nc(Nc3cc(F)c(O)c(F)c3)ncc2N(C)C(=O)C1C` (stereo not shown) [BI-D1870], the GI50 in the experiment on Sk-Mel-28 (0.25% FBS media) was 12.5 µM; with Sk-Mel-28 (5% FBS media), 25 µM; in the experiment with A375 (0.25% FBS media) it was over 50 µM; in the experiment on A375 (5% FBS media), 12.5 µM. Also, the “effect … on cell growth / combination index” value in [1] is “additive effects only”.

Turning to `NC1(c2ccc(-c3nc4ccn5c(=O)[nH]nc5c4cc3-c3ccccc3)cc2)CCC1` [MK2206], the GI50 in the experiment with Sk-Mel-28 (setting [2]) worked out at 5 µM; in the experiment with Sk-Mel-28 (setting [3]), 2.5 µM; in the experiment with A375 (setting [4]), 2.5 µM; with A375 (setting [5]), 10 µM. Moreover, the “effect on AKT1 activity” value on AKT1 is “effectively decreased AKT1 activity”.

For the compound `CN1CCN(c2nc(C3=C(c4c[nH]c5ccccc45)C(=O)NC3=O)c3ccccc3n2)CC1` [Sotrastaurin, sotrastaurin], the “effect … on cell growth / combination index” value in [1] is reported as “limited additivity effects”.

Turning to `CCCS(=O)(=O)Nc1ccc(F)c(C(=O)c2c[nH]c3ncc(-c4ccc(Cl)cc4)cc23)c1F` [VEM, vemurafenib], the GI50 with Sk-Mel-28 (setting [2]) turned out to be 0.31 µM; in the experiment with Sk-Mel-28 (setting [3]) it was 0.63 µM; with A375 (setting [4]) it was 0.02 µM; in the experiment with A375 (setting [5]), 0.15 µM; in the experiment on WiDr cells it was 2 µM. Also, the “increase in GI50 versus control A375” value in the experiment with A375 myrAKT1 cells is given as 65%.

The values are drawn from patent US20210333285A1, “DETECTION OF PHOSPHOKINASE SIGNATURES” (The Regents of the University of California, priority 2018, published 2021).
